Columns and labels:
Conditions in all cases: 48 h
SEM cells [1] = assay: cell viability relative to DMSO control; higher = less cytotoxic
Procedure, shortened: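 Viability is expressed as a percentage of DMSO wells within each plate, and cell-free wells serve as background. Seeding densities in the 1536-well plates (5 μl) were 500 cells/well for NOMO1 or SEM leukemia cells and 1000 cells/well for P12-Ichikawa. Each line was adapted for at least four passages in each medium. Library compounds in DMSO were pin-dosed at 47 μM to 0.79 nM (11 points, threefold), and CellTiter-Glo One luminescence was read after 48 h at 37°C.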

NOMO1 = assay: AUC of viability dose-response curve (% viability x log10 dose units); higher = less sensitive
Procedure, shortened: (§1)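 Leukemia cells adapted to each medium were seeded in 1536-well plates (500 or 1000 cells/well). They were dosed with library compounds in DMSO at 11 threefold doses, 47 μM to 0.79 nM, for 48 h at 37°C. CellTiter-Glo One luminescence was normalised per plate to DMSO and cell-free wells. Area under the curve was integrated by trapezoidal rule over log10 doses on a four-parameter log-logistic fit; curves exceeding full viability were scaled and curves failing quality control removed.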

P12-Ichikawa = assay: as above
Procedure, shortened: as §1

SEM cells [2] = assay: as above
Procedure, shortened: as §1

S=C1N\C=N/C2=C1[NH]C=N2
cell viability [%], SEM cells [1]
Conditions | HPLM + 10% dialyzed FBS | RPMI 5 mM glucose + 10% FBS | RPMI 5 mM glucose + 10% dialyzed FBS
0.000781 µM | 91.2 | 104 | 105
0.00234 µM | 116 | 119 | 119
0.00702 µM | 136 | 144 | 138
0.0211 µM | 121 | 119 | 106
0.0632 µM | 131 | 132 | 134
0.19 µM | 126 | 139 | 119
0.569 µM | 124 | 108 | 91.3
1.71 µM | 105 | 93.3 | 56.7
5.12 µM | 106 | 79.5 | 48.5
15.4 µM | 90.6 | 73.2 | 42.4
46.1 µM | 81.7 | 66.4 | 33.7

AUC of viability dose-response curve
Conditions | NOMO1 | P12-Ichikawa | SEM cells [2]
HPLM + 10% dialyzed FBS | 425 | 404 | 445
RPMI 5 mM glucose + 10% FBS | 446 | 377 | 409
RPMI 5 mM glucose + 10% dialyzed FBS | 360 | 343 | 360

N/C1=N/C(=O)C/2=C(NC[C@@H](CNC3=CC=C(C=C3)C(=O)N[C@@H](CCC([O-])=O)C([O-])=O)N2C=O)\N1
SEM cells [1], HPLM + 10% dialyzed FBS
Conditions | cell viability [%]
0.000781 µM | 103
0.00234 µM | 114
0.00702 µM | 120
0.0211 µM | 115
0.0632 µM | 131
0.19 µM | 114
0.569 µM | 117
1.71 µM | 116
5.12 µM | 119
15.4 µM | 123
46.1 µM | 136

AUC of viability dose-response curve
Conditions | HPLM + 10% dialyzed FBS | RPMI 5 mM glucose + 10% FBS | RPMI 5 mM glucose + 10% dialyzed FBS
NOMO1 | 319 | 307 | 321
SEM cells [2] | 446 | 465 | 437

OC(CN1CCC(Cc2ccc(F)cc2)CC1)c1ccc(Cl)cc1 (stereo unspecified)
cell viability [%], SEM cells [1]
Conditions | HPLM + 10% dialyzed FBS | RPMI 5 mM glucose + 10% dialyzed FBS
0.000781 µM | 106 | 116
0.00234 µM | 118 | 125
0.00702 µM | 108 | 115
0.0211 µM | 115 | 129
0.0632 µM | 116 | 126
0.19 µM | 118 | 139
0.569 µM | 117 | 140
1.71 µM | 122 | 136
5.12 µM | 124 | 125
15.4 µM | 130 | 128
46.1 µM | 129 | 136

AUC of viability dose-response curve
Conditions | NOMO1 | P12-Ichikawa | SEM cells [2]
HPLM + 10% dialyzed FBS | 456 | 449 | 440
RPMI 5 mM glucose + 10% FBS | 455 | 451 | 451
RPMI 5 mM glucose + 10% dialyzed FBS | 448 | 451 | 461

CN1CCN(c2ccc(C(=O)Nc3n[nH]c4ccc(Cc5cc(F)cc(F)c5)cc34)c(NC3CCOCC3)c2)CC1
AUC of viability dose-response curve
Conditions | HPLM + 10% dialyzed FBS | RPMI 5 mM glucose + 10% FBS | RPMI 5 mM glucose + 10% dialyzed FBS
P12-Ichikawa | 440 | 440 | 404
SEM cells [2] | 341 | 352 | 354
